In patent US8952024B2, “Herbicidal pyrimidone derivatives” (E I du Pont de Nemours and Company, priority 2009, dated 2015):

Experiments:
Type in all cases: in vivo
[1] = test system: chickweed (Stellaria media); experiment: Test B postemergence plant response; conditions: Postemergence
Summary of the method: (§1)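 Plants grown in peat/vermiculite medium were sprayed postemergence at 2–18 cm height (1- to 4-leaf stage). After 13–15 days in the greenhouse, response was rated visually against untreated controls on a 0–100 scale (0 no effect, 100 complete control).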

[2] = test system: windgrass (Apera spica-venti); experiment: Test B postemergence plant response; conditions: Postemergence
Summary of the method: as §1

[3] = test system: winter barley (Hordeum vulgare); experiment: Test B postemergence plant response; conditions: Postemergence
Summary of the method: as §1

[4] = test system: canarygrass (Phalaris minor); experiment: Test B postemergence plant response; conditions: Postemergence
Summary of the method: as §1

[5] = test system: lambsquarters (Chenopodium album); experiment: Test B pre-/postemergence plant response
Summary of the method: (§2)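 Visual injury, 0–100 scale (100 = complete control), rated against controls after 13 to 15 days in greenhouse. Pre-emergence: seeds in loam/sand soil, treated at planting. Post-emergence: 1- to 4-leaf plants (2 to 18 cm) in peat/vermiculite medium. Compounds formulated in non-phytotoxic solvent with surfactant.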

[6] = test system: green foxtail (Setaria viridis); experiment: Test B pre-/postemergence plant response
Summary of the method: as §2

soybean (Glycine max) = experiment: Test B pre-/postemergence plant response
Summary of the method: as §2

corn (Zea mays) = experiment: Test B pre-/postemergence plant response
Summary of the method: as §2

[7] = test system: pigweed (Amaranthus retroflexus); experiment: Test B pre-/postemergence plant response
Summary of the method: as §2

[8] = test system: yellow nutsedge (Cyperus esculentus); experiment: Test B pre-/postemergence plant response
Summary of the method: as §2

[9] = test system: goosegrass (Eleusine indica); experiment: Test B pre-/postemergence plant response
Summary of the method: as §2

[10] = test system: velvetleaf (Abutilon theophrasti); experiment: Test B pre-/postemergence plant response
Summary of the method: as §2

[11] = test system: johnsongrass (Sorghum halepense); experiment: Test B pre-/postemergence plant response
Summary of the method: as §2

[12] = test system: giant foxtail (Setaria faberii); experiment: Test B pre-/postemergence plant response
Summary of the method: as §2

[13] = 31 g ai/ha, 0 to 100 scale (0 no effect, 100 complete control)
[14] = 62 g ai/ha, scale 0 to 100 (0 no effect, 100 complete control)
[15] = 125 g ai/ha, scale 0 (no effect) to 100 (complete control), 13 to 15 days
[16] = 250 g ai/ha, scale 0 to 100 (0 no effect, 100 complete control), 13 to 15 days
[17] = Postemergence, 31 g ai/ha, 0 to 100 scale (0 no effect, 100 complete control)
[18] = Postemergence, 62 g ai/ha, scale 0 to 100 (0 no effect, 100 complete control)
[19] = Postemergence, 125 g ai/ha, scale 0 (no effect) to 100 (complete control), 13 to 15 days
[20] = Postemergence, 250 g ai/ha, scale 0 to 100 (0 no effect, 100 complete control), 13 to 15 days
[21] = Preemergence, 31 g ai/ha, scale 0 to 100 (0 no effect, 100 complete control)
[22] = Preemergence, 62 g ai/ha, scale 0 to 100 (0 no effect, 100 complete control)
[23] = Preemergence, 125 g ai/ha, scale 0 to 100, 0 no effect, 100 complete control
[24] = Preemergence, 250 g ai/ha, 0 to 100 scale

## CCCCn1c(-c2cc(F)cc(F)c2)ncc(C(=O)C2=C(O)C3CCC(C3)C2=O)c1=O (stereo not drawn) [Compound 245]
[1]; [13]
  Plant response rating, Chickweed: 80
[1]; [14]
  Plant response rating, Chickweed: 85
[1]; [15]
  Plant response rating, Chickweed: 100
[1]; [16]
  Plant response rating, Chickweed: 100
[2]; [13]
  Plant response rating, Windgrass: 65
[2]; [14]
  Plant response rating, Windgrass: 70
[2]; [15]
  Plant response rating, Windgrass: 95
[2]; [16]
  Plant response rating, Windgrass: 98
[3]; [13]
  Plant response rating, Barley: 45
[3]; [14]
  Plant response rating, Barley: 85
[3]; [15]
  Plant response rating, Barley: 85
[3]; [16]
  Plant response rating, Barley: 95
[4]; [13]
  Plant response rating, Canarygrass: 80
[4]; [14]
  Plant response rating, Canarygrass: 95
[4]; [15]
  Plant response rating, Canarygrass: 100
[4]; [16]
  Plant response rating, Canarygrass: 100
[5]; [17]
  Plant response rating, Lambsquarters: 98
[5]; [18]
  Plant response rating, Lambsquarters: 100
[5]; [19]
  Plant response rating, Lambsquarters: 100
[5]; [20]
  Plant response rating, Lambsquarters: 100
[5]; [21]
  Plant response rating, Lambsquarters: 100
[5]; [22]
  Plant response rating, Lambsquarters: 100
[5]; [23]
  Plant response rating, Lambsquarters: 100
[5]; [24]
  Lambsquarters plant response rating: 100
[6]; [17]
  Plant response rating, Foxtail, Green: 85
[6]; [18]
  Plant response rating, Foxtail, Green: 98
[6]; [19]
  Plant response rating, Foxtail, Green: 100
[6]; [20]
  Plant response rating, Foxtail, Green: 100
[6]; [21]
  Plant response rating, Foxtail, Green: 0
[6]; [22]
  Plant response rating, Foxtail, Green: 0
[6]; [23]
  Plant response rating, Foxtail, Green: 75
[6]; [24]
  Foxtail, Green plant response rating: 100
Soybean (Glycine max); [17]
  Plant response rating, Soybean: 95
Soybean (Glycine max); [18]
  Plant response rating, Soybean: 98
Soybean (Glycine max); [19]
  Plant response rating, Soybean: 100
Soybean (Glycine max); [20]
  Plant response rating, Soybean: 100
Soybean (Glycine max); [21]
  Plant response rating, Soybean: 0
Soybean (Glycine max); [22]
  Plant response rating, Soybean: 10
Soybean (Glycine max); [23]
  Plant response rating, Soybean: 55
Soybean (Glycine max); [24]
  Soybean plant response rating: 75
Corn (Zea mays); [17]
  Plant response rating, Corn: 100
Corn (Zea mays); [18]
  Plant response rating, Corn: 100
Corn (Zea mays); [19]
  Plant response rating, Corn: 100
Corn (Zea mays); [20]
  Plant response rating, Corn: 100
Corn (Zea mays); [21]
  Plant response rating, Corn: 0
Corn (Zea mays); [22]
  Plant response rating, Corn: 5
Corn (Zea mays); [23]
  Plant response rating, Corn: 25
Corn (Zea mays); [24]
  Corn plant response rating: 65
[7]; [17]
  Plant response rating, Pigweed: 80
[7]; [18]
  Plant response rating, Pigweed: 98
[7]; [19]
  Plant response rating, Pigweed: 100
[7]; [20]
  Plant response rating, Pigweed: 100
[7]; [21]
  Plant response rating, Pigweed: 80
[7]; [22]
  Plant response rating, Pigweed: 95
[7]; [23]
  Plant response rating, Pigweed: 100
[7]; [24]
  Pigweed plant response rating: 100
[8]; [17]
  Plant response rating, Nutsedge, Yellow: 40
[8]; [18]
  Plant response rating, Nutsedge, Yellow: 45
[8]; [19]
  Plant response rating, Nutsedge, Yellow: 70
[8]; [20]
  Plant response rating, Nutsedge, Yellow: 75
[8]; [21]
  Plant response rating, Nutsedge, Yellow: 0
[8]; [22]
  Plant response rating, Nutsedge, Yellow: 0
[8]; [23]
  Plant response rating, Nutsedge, Yellow: 65
[8]; [24]
  Nutsedge, Yellow plant response rating: 80
[9]; [17]
  Plant response rating, Goosegrass: 98
[9]; [18]
  Plant response rating, Goosegrass: 98
[9]; [19]
  Plant response rating, Goosegrass: 100
[9]; [20]
  Plant response rating, Goosegrass: 100
[9]; [21]
  Plant response rating, Goosegrass: 95
[9]; [22]
  Plant response rating, Goosegrass: 100
[9]; [23]
  Plant response rating, Goosegrass: 100
[9]; [24]
  Goosegrass plant response rating: 100
[10]; [17]
  Plant response rating, Velvetleaf: 100
[10]; [18]
  Plant response rating, Velvetleaf: 100
[10]; [19]
  Plant response rating, Velvetleaf: 100
[10]; [20]
  Plant response rating, Velvetleaf: 100
[10]; [21]
  Plant response rating, Velvetleaf: 95
[10]; [22]
  Plant response rating, Velvetleaf: 100
[10]; [23]
  Plant response rating, Velvetleaf: 100
[10]; [24]
  Velvetleaf plant response rating: 100
[11]; [17]
  Plant response rating, Johnsongrass: 100
[11]; [18]
  Plant response rating, Johnsongrass: 100
[11]; [19]
  Plant response rating, Johnsongrass: 100
[11]; [20]
  Plant response rating, Johnsongrass: 100
[11]; [21]
  Plant response rating, Johnsongrass: 65
[11]; [22]
  Plant response rating, Johnsongrass: 75
[11]; [23]
  Plant response rating, Johnsongrass: 80
[11]; [24]
  Johnsongrass plant response rating: 100
[12]; [17]
  Plant response rating, Foxtail, Giant: 98
[12]; [18]
  Plant response rating, Foxtail, Giant: 100
[12]; [19]
  Plant response rating, Foxtail, Giant: 100
[12]; [20]
  Plant response rating, Foxtail, Giant: 100
[12]; [21]
  Plant response rating, Foxtail, Giant: 0
[12]; [22]
  Plant response rating, Foxtail, Giant: 10
[12]; [23]
  Plant response rating, Foxtail, Giant: 90
[12]; [24]
  Foxtail, Giant plant response rating: 100
